In the assay the test system is PC12 cells. Kind of assay: neurite outgrowth from PC12 cells measured by laser scanning line amplitudes. The format is cell-based. The following applies: NGF added, after six days, FIG. 5. An excerpt: The method of the invention was applied to the measurement of neurite outgrowth from PC12 cells. The neurites are much smaller than the cells and the laser beam, being only one micron in diameter in some cases. […] The extent of differentiation can be measured by considering the characteristic gaussian fit, multi-peaks ratio, sample width and number of inflections of the line amplitudes of the two populations. Any combination of these measurements from the line amplitudes may be used as a quantitative measure of differentiation.
If the line-to-line spacing of the scan is sufficiently small it is also possible to produce a representation of each cell in 3D (FIG. 6). This provides confirmation of the ability of the method to characterise differentiation.

Consider one substance from patent publication US20030100024A1, “Method and apparatus for high throughput cell-based assays for screening and diagnostics” (priority 2000, published 2003).

For the substance nerve growth factor [NGF], the “differentiation (neurite outgrowth) of the cell population” value is listed as “the majority differentiated with neurite outgrowths”.
